Assay results published in PMC5835390 (Chemical communications (Cambridge, England), 2018).

Assays:
[1] = chromatographic, C18 column, same gradient; cited from earlier work
carboxypeptidase = assay: Carboxypeptidase treatment of albusnodin; type: in vitro ADME; settings: reports on threaded state, Fig. S9

Row | Substance | HPLC elution time (used as indication of polarity) [1] | Resistance to carboxypeptidase cleavage (carboxypeptidase)
1 | astexin-3 | around 14 minutes | –
2 | astexin-2 | around 14 minutes | –
3 | microcin J25 (GGAGHVPEYFVGIGTPISFYG; not fully specified; Microcin J25 lasso peptide; UniProt Q9X2V7 38-58, looked up) | around 17 minutes | –
4 | astexin-1 | around 14 minutes | –
5 | albusnodin | – | resistant to carboxypeptidase cleavage
